From patent publication US12643903B2, “Bifunctional compounds for degradation of EGFR and related methods of use” (BeiGene, Ltd., priority 2020, dated 2026)

Legend:
EGFR DTC = assay: Cell Degradation 3: EGFR degradation in BaF3 cells (DTC), HTRF assay; assay type: cell-based; conditions: 16 h treatment, EGFR degradation by HTRF
Procedure: (§1) Cell Degradation 3 Cell Treatment
(§2) BaF3 cells are treated with compounds diluted in 0.2% DMSO, dilution is done according to the following protocol: (1) make 500× stock solution in DMSO from 5 mM by 4-fold dilution, total 8 doses were included; (2) make 2× solution in cell culture medium by transferring 0.5 μl 500× stock solution into 125 μl medium; (3) 30 μl of 2× solution is added to cells and incubate for 16 h.
(§3) After 16 h treatment, add 20 μl 4×lysis buffer to each well; seal the plate and incubate 1 hour at room temperature on a plate shaker; Once the cells are lysed, 16 μL of cell lysate are transferred to a PE 384-well HTRF detection plate (for triple mutant cells, the lysate were diluted by the qual volume 1×lysis buffer before transfer); 4 μL of pre-mixed HTRF antibodies are added to each well; Cover the plate with a plate sealer, spin 1000 rpm for 1 min, Incubate overnight at room temperature; Read on BMG PheraStar with HTRF protocol (337 nm-665 nm-620 nm).
(§4) The IC50 (DC50) value of a compound can be obtained by fitting the following equation Y=Bottom+(TOP−Bottom)/(1+((IC50/X)^hillslope))
(§5) Wherein, X and Y are known values, and IC50, Hillslope, Top and Bottom are the parameters obtained by fitting with software. Y is the inhibition percentage (calculated from the equation), X is the concentration of the compound; IC50 is the concentration of the compound when the 50% inhibition is reached. The smaller the IC50 value is, the stronger the inhibitory ability of the compound is. Vice versa, the higher the IC50 value is, the weaker the ability the inhibitory ability of the compound is; Hillslope represents the slope of the fitted curve, generally around 1*; Bottom represents the minimum value of the curve obtained by data fitting, which is generally 0%±20%; Top represents the maximum value of the curve obtained by data fitting, which is generally 100%±20%. The experimental data were fitted by calculating and analyzing with Dotmatics data analysis software.

EGFR LTC = target: T1, EGFR LTC (Homo sapiens, UniProt P00533, C797S/L858R/T790M); assay: Cell Degradation 3: EGFR degradation in BaF3 cells (LTC), HTRF assay; assay type: cell-based; conditions: 16 h treatment, EGFR degradation by HTRF
T1 construct: expressed in transfected cells; host or cells: BaF3
T1 sequence (P00533 25-1210 T790M/C797S/L858R): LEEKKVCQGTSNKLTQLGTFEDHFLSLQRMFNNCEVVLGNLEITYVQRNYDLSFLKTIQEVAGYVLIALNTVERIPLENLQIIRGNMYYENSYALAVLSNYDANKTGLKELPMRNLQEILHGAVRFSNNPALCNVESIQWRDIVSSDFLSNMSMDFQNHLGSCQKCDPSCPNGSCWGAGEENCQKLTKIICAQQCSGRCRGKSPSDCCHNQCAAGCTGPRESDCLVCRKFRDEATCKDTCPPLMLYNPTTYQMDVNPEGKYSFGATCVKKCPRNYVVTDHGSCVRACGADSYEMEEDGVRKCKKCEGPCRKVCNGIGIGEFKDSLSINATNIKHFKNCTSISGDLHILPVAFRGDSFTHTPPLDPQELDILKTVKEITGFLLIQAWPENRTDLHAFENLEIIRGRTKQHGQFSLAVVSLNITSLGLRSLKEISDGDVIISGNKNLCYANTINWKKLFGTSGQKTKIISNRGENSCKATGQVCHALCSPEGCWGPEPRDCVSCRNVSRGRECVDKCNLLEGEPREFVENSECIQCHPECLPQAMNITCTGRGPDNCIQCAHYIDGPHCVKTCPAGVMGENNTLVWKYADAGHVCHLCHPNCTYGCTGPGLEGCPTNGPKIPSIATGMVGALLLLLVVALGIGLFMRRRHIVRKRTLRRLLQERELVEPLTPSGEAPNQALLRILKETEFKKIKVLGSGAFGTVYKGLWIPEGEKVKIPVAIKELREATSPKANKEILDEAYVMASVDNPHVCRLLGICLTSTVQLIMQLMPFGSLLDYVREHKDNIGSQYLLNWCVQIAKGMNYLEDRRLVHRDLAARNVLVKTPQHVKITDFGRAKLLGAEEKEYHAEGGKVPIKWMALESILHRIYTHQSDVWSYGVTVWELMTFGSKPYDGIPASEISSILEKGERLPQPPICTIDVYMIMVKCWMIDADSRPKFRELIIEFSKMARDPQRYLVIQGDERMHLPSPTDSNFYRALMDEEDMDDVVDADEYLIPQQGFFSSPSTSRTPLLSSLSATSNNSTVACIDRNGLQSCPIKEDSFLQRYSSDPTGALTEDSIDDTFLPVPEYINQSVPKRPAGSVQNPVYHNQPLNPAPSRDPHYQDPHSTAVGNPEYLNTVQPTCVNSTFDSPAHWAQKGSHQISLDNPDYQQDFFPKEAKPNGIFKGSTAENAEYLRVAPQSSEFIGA
Procedure: as §1, §2, §3, §4, §5

SMILES	DC50 (EGFR DTC) [nM]	DC50 (EGFR LTC) [nM]
COc1cc(N2CCC(N3CCN(C(=O)[C@H]4C[C@H](N(C)c5ccc(C6CCC(=O)NC6=O)cc5)C4)CC3)CC2)c(C)cc1Nc1ncc(Br)c(Nc2cccc3c2N(S(C)(=O)=O)CC3)n1 (stereo partly drawn) [Example 170, 3-(4-(((1r,3r)-3-(4-(1-(4-((5-bromo-4-((1-(methylsulfonyl)indolin-7-yl)amino)pyrimidin-2-yl)amino)-5-methoxy-2-methylphenyl)piperidin-4-yl)piperazine-1-carbonyl)cyclobutyl)(methyl)amino)phenyl)piperidine-2,6-dione]	8	23
COc1cc(N2CCC(N3CCN(CCNc4cccc5c4CN(C4CCC(=O)NC4=O)C5=O)CC3)CC2)c(C)cc1Nc1ncc(Br)c(Nc2cccc3c2N(S(C)(=O)=O)CC3)n1 (stereo not drawn) [Example 173, 3-(4-((2-(4-(1-(4-((5-bromo-4-((1-(methylsulfonyl)indolin-7-yl)amino)pyrimidin-2-yl)amino)-5-methoxy-2-methylphenyl)piperidin-4-yl)piperazin-1-yl)ethyl)amino)-1-oxoisoindolin-2-yl)piperidine-2,6-dione]	15	27
CCc1cc(Nc2ncc(Br)c(Nc3ccc(F)c4c3N(S(C)(=O)=O)CC4)n2)c(OC)cc1N1CCC(N2CCN(C(=O)[C@@H]3CCN(c4cc(F)c([C@H]5CCC(=O)NC5=O)c(F)c4)C3)CC2)CC1 [Example 194, (R)-3-(4-((R)-3-(4-(1-(4-((5-bromo-4-((4-fluoro-1-(methylsulfonyl)indolin-7-yl)amino)pyrimidin-2-yl)amino)-2-ethyl-5-methoxyphenyl)piperidin-4-yl)piperazine-1-carbonyl)pyrrolidin-1-yl)-2,6-difluorophenyl)piperidine-2,6-dione]		29
COc1cc(N2CCC(N3CCN(C[C@H]4C[C@H](N(C)c5ccc6c(c5)C(=O)N(C5CCC(=O)NC5=O)C6=O)C4)CC3)CC2)c(C)cc1Nc1ncc(Br)c(Nc2cccc3c2N(S(C)(=O)=O)CC3)n1 (stereo partly drawn) [Example 165, 5-(((1r,3r)-3-((4-(1-(4-((5-bromo-4-((1-(methylsulfonyl)indolin-7-yl)amino)pyrimidin-2-yl)amino)-5-methoxy-2-methylphenyl)piperidin-4-yl)piperazin-1-yl)methyl)cyclobutyl)(methyl)amino)-2-(2,6-dioxopiperidin-3-yl)isoindoline-1,3-dione]	91	100
COc1cc(N2CCC(N3CCN(C[C@@H]4CCN(c5ccc6c(c5)C(=O)N(C5CCC(=O)NC5=O)C6=O)C4)CC3)CC2)c(C)cc1Nc1ncc(Br)c(Nc2cccc3c2N(S(C)(=O)=O)CC3)n1 (stereo partly drawn) [Example 164, 5-((S)-3-((4-(1-(4-((5-bromo-4-((1-(methylsulfonyl)indolin-7-yl)amino)pyrimidin-2-yl)amino)-5-methoxy-2-methylphenyl)piperidin-4-yl)piperazin-1-yl)methyl)pyrrolidin-1-yl)-2-(2,6-dioxopiperidin-3-yl)isoindoline-1,3-dione]	52	60
COc1cc(N2CCC(N3CCN(CC4CN(c5ccc(C6CCC(=O)NC6=O)c(F)c5)C4)CC3)CC2)c(C)cc1Nc1ncc(Br)c(Nc2cccc3c2N(S(C)(=O)=O)CC3)n1 (stereo not drawn) [Example 169, 3-(4-(3-((4-(1-(4-((5-bromo-4-((1-(methylsulfonyl)indolin-7-yl)amino)pyrimidin-2-yl)amino)-5-methoxy-2-methylphenyl)piperidin-4-yl)piperazin-1-yl)methyl)azetidin-1-yl)-2-fluorophenyl)piperidine-2,6-dione]	39	57
COc1cc(N2CCC(N3CCN(CCc4cc(F)c(C5CCC(=O)NC5=O)c(F)c4)CC3=O)CC2)c(C)cc1Nc1ncc(Br)c(Nc2cccc3c2N(S(C)(=O)=O)CC3)n1 (stereo not drawn) [Example 185, 3-(4-(2-(4-(1-(4-((5-bromo-4-((1-(methylsulfonyl)indolin-7-yl)amino)pyrimidin-2-yl)amino)-5-methoxy-2-methylphenyl)piperidin-4-yl)-3-oxopiperazin-1-yl)ethyl)-2,6-difluorophenyl)piperidine-2,6-dione]	4	18
CCc1cc(Nc2ncc(Br)c(Nc3ccc(F)c4c3N(S(C)(=O)=O)CC4)n2)c(OC)cc1N1CCC(N2CCN(CCc3cc(F)c([C@H]4CCC(=O)NC4=O)c(F)c3)CC2)CC1 [Example 195, (R)-3-(4-(2-(4-(1-(4-((5-bromo-4-((4-fluoro-1-(methylsulfonyl)indolin-7-yl)amino)pyrimidin-2-yl)amino)-2-ethyl-5-methoxyphenyl)piperidin-4-yl)piperazin-1-yl)ethyl)-2,6-difluorophenyl)piperidine-2,6-dione]		24
CCc1cc(Nc2ncc(Br)c(Nc3ccc(C(F)(F)F)c4c3N(S(C)(=O)=O)CC4)n2)c(OC)cc1N1CCC(N2CCN(C(=O)C3CN(c4cc(F)c([C@H]5CCC(=O)NC5=O)c(F)c4)C3)CC2)CC1 [Example 196, (R)-3-(4-(3-(4-(1-(4-((5-bromo-4-((1-(methylsulfonyl)-4-(trifluoromethyl)indolin-7-yl)amino)pyrimidin-2-yl)amino)-2-ethyl-5-methoxyphenyl)piperidin-4-yl)piperazine-1-carbonyl)azetidin-1-yl)-2,6-difluorophenyl)piperidine-2,6-dione]		71
CCc1cc(Nc2ncc(Br)c(Nc3ccc(C4CC4)c4c3N(S(C)(=O)=O)CC4)n2)c(OC)cc1N1CCC(N2CCN(CCc3cc(F)c(C4CCC(=O)NC4=O)c(F)c3)CC2)CC1 (stereo not drawn) [Example 193, 3-(4-(2-(4-(1-(4-((5-bromo-4-((4-cyclopropyl-1-(methylsulfonyl)indolin-7-yl)amino)pyrimidin-2-yl)amino)-2-ethyl-5-methoxyphenyl)piperidin-4-yl)piperazin-1-yl)ethyl)-2,6-difluorophenyl)piperidine-2,6-dione]		74
CCOc1cc(N2CCC(N3CCN(CCc4cc(F)c([C@H]5CCC(=O)NC5=O)c(F)c4)CC3)CC2)c(CC)cc1Nc1ncc(Br)c(Nc2ccc(CC)c3c2N(S(C)(=O)=O)CC3)n1 [Example 203, (R)-3-(4-(2-(4-(1-(4-((5-bromo-4-((4-ethyl-1-(methylsulfonyl)indolin-7-yl)amino)pyrimidin-2-yl)amino)-5-ethoxy-2-ethylphenyl)piperidin-4-yl)piperazin-1-yl)ethyl)-2,6-difluorophenyl)piperidine-2,6-dione]		83
CCc1cc(Nc2ncc(Br)c(Nc3ccc(CC)c4c3N(S(C)(=O)=O)CC4)n2)c(OC)cc1N1CCC(N2CCN(CCc3cc(F)c(C4CCC(=O)NC4=O)c(F)c3)CC2)CC1 (stereo not drawn) [Example 192, 3-(4-(2-(4-(1-(4-((5-bromo-4-((4-ethyl-1-(methylsulfonyl)indolin-7-yl)amino)pyrimidin-2-yl)amino)-2-ethyl-5-methoxyphenyl)piperidin-4-yl)piperazin-1-yl)ethyl)-2,6-difluorophenyl)piperidine-2,6-dione]		65
CCc1cc(Nc2ncc(Br)c(Nc3ccc(C(F)(F)F)c4c3N(S(C)(=O)=O)CC4)n2)c(OC)cc1N1CCC(N2CCN(C(=O)[C@@H]3CCN(c4cc(F)c([C@H]5CCC(=O)NC5=O)c(F)c4)C3)CC2)CC1 [Example 197, (R)-3-(4-((R)-3-(4-(1-(4-((5-bromo-4-((1-(methylsulfonyl)-4-(trifluoromethyl)indolin-7-yl)amino)pyrimidin-2-yl)amino)-2-ethyl-5-methoxyphenyl)piperidin-4-yl)piperazine-1-carbonyl)pyrrolidin-1-yl)-2,6-difluorophenyl)piperidine-2,6-dione]		83
CCc1cc(Nc2ncc(Br)c(Nc3ccc(CC)c4c3N(S(C)(=O)=O)CC4)n2)c(OC)cc1N1CCC(N2CCN(C(=O)[C@@H]3CCN(c4cc(F)c([C@H]5CCC(=O)NC5=O)c(F)c4)C3)CC2)CC1 [Example 198, (R)-3-(4-((R)-3-(4-(1-(4-((5-bromo-4-((4-ethyl-1-(methylsulfonyl)indolin-7-yl)amino)pyrimidin-2-yl)amino)-2-ethyl-5-methoxyphenyl)piperidin-4-yl)piperazine-1-carbonyl)pyrrolidin-1-yl)-2,6-difluorophenyl)piperidine-2,6-dione]		34
CCc1cc(Nc2ncc(Br)c(Nc3ccc(N(C)C)c4c3N(S(C)(=O)=O)CC4)n2)c(OC)cc1N1CCC(N2CCN(CCc3cc(F)c([C@H]4CCC(=O)NC4=O)c(F)c3)CC2)CC1 [Example 200, (R)-3-(4-(2-(4-(1-(4-((5-bromo-4-((4-(dimethylamino)-1-(methylsulfonyl)indolin-7-yl)amino)pyrimidin-2-yl)amino)-2-ethyl-5-methoxyphenyl)piperidin-4-yl)piperazin-1-yl)ethyl)-2,6-difluorophenyl)piperidine-2,6-dione]		513
